The values that follow are results of earlier work, collected in patent US20130315843A1, “COMPOSITION FOR REDUCTION OF TRPA1 AND TRPV1 SENSATIONS” (priority 2012, published 2013).

The conditions of this data set: concentration where the cooling effect can be clearly recognized; cited from earlier work.
As for `CC(C)[C@@H]1CC[C@@H](C)C[C@@H]1O` [1-neomenthol], the cooling threshold entry is recorded as “about 3,000 ppb”.

Take `CC(C)[C@@H]1CC[C@@H](C)C[C@H]1O` [L-menthol]: the cooling threshold entry was “about 800 ppb”.

`CC(C)[C@@H]1CC[C@@H](C)C[C@@H]1O` [d-neomenthol]: the cooling threshold entry is “about 25,000 ppb”.
